Test results reported in patent US12514938B2, “Fibroblast activation protein targeting peptides” (PERSPECTIVE THERAPEUTICS, INC., priority 2023, dated 2026).
*1 amine or outer side, *2 acyl side, *3 side chain or, on linkers, in order; H or OH if unused. Where a SMILES comes first, the peptide text is derived from it. Bridges are numbered along the chain shown (N, C = ends). [ ]: non-standard residue; d: D form. The star is where a group is joined. X2 = NC(=O)CN1CCN(CC(=O)O)CCN(CC(=O)NCCOCCOCCC(=O)NCCSCc2cc(C[*:1])cc(C[*:2])c2)CCN(CC(=O)O)CC1; X1 = NC(=O)CN1CCN(CC(=O)O)CCN(CC(=O)*)CCN(CC(=O)O)CC1; NOTA = O=C(O)CN1CCN(CC(=O)O)CCN(CC(=O)*)CC1; oXylylene = c1ccc(C[*:2])c(C[*:1])c1; 3Pal = N[C@@H](Cc1cccnc1)C(=O)O; PEG3 = NCCOCCOCCOCCC(=O)O; PEG2 = NCCOCCOCCC(=O)O; Ahx = NCCCCCC(=O)O

target: T1, Human Fibroblast Activation Protein (FAP) (Homo sapiens, UniProt Q12884); assay: Enzyme inhibition assay against human FAP (substrate Z-GP-AMC), Example 1; format: biochemical; details: human FAP 5 ng/well, 50 μM Z-GP-AMC; Ki from IC50 by Cheng-Prusoff
T1 sequence (Q12884 1-760): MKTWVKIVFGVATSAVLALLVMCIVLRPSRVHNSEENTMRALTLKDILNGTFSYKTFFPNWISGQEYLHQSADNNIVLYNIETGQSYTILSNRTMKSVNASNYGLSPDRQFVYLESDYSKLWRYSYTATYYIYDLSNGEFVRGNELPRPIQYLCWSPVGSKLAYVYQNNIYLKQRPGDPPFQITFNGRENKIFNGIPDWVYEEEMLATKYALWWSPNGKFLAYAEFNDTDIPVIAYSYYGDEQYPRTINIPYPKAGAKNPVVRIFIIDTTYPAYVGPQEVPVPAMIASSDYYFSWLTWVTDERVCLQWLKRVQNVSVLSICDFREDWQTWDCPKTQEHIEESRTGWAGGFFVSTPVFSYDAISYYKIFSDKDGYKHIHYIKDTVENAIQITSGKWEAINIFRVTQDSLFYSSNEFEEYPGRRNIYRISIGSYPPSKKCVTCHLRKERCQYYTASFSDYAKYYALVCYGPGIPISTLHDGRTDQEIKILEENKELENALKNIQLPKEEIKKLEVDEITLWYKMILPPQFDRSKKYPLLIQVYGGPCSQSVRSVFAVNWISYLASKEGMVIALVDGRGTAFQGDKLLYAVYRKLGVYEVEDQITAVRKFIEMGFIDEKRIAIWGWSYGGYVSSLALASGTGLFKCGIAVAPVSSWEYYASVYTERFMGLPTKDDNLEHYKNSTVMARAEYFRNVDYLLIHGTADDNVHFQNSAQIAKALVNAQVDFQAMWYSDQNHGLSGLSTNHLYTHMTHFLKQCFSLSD
Description: Binding Affinity Against Human Fibroblast Activation Protein (FAP)
An enzyme inhibition assay was performed to determine IC50 values and then the Cheng-Prusoff equation used to calculate the Ki given a known Km of the substrate Z-GP-AMC for FAP. To perform the assay, FAP (5 ng/well) and the test peptide at varying concentrations (i.e. 10^−6 to 10^−12) were incubated in a black 96-well plate for 10 minutes at RT on a shaker plate. Then, the substrate Z-GP-AMC was added to give a final concentration of 50 μM. The total reaction volume per well was 100 μL The reaction was allowed to incubate at RT on a shaker plate for 1 hour protected from light, and then fluorescence read with a BioTek Synergy LX plate reader at an ex/em (360/40 and 460/40). Experiments were performed in at least duplicate, and controls of buffer only, buffer and FAP enzyme, and buffer with substrate and FAP enzyme only were included for comparison. The buffer used for the assay was 50 mM Tris-HCl, 1M NaCl, and 1 mg/mL BSA, pH=7.5. Data was plotted in GraphPad Prism and non-linear regression used to calculate IC50 values. The compounds tested and Ki values of each were as follows: […]

SMILES	Ki [nM]
C[C@@H](O)[C@@H]1NC(=O)[C@@H](NC(=O)CCCCCNC(=O)CN2CCN(CC(=O)O)CCN(CC(N)=O)CCN(CC(=O)O)CC2)CSCc2ccccc2CSC[C@@H](C(=O)O)NC(=O)[C@H](Cc2c[nH]c3ccccc23)NC(=O)[C@H](Cc2c[nH]c3ccccc23)NC(=O)[C@H](CCC(N)=O)NC(=O)[C@H](CCC(=O)O)NC(=O)[C@H](Cc2c[nH]c3ccccc23)NC(=O)[C@@H]2CCCN2C1=O [VMT-FAP-2-75, PSC-6AHA-[C(oXdB)TPWEQWWC]-COOH] ({X1-Ahx}-CTPWEQWWC-OH; linker 1-9 via oXylylene)	1.26
C[C@@H](O)[C@@H]1NC(=O)[C@@H](NC(=O)CCOCCOCCNC(=O)CN2CCN(CC(=O)O)CCN(CC(=O)O)CC2)CSCc2ccccc2CSC[C@@H](C(N)=O)NC(=O)[C@H](Cc2c[nH]c3ccccc23)NC(=O)[C@H](Cc2c[nH]c3ccccc23)NC(=O)[C@H](CCC(N)=O)NC(=O)[C@H](CCC(=O)O)NC(=O)[C@H](Cc2c[nH]c3ccccc23)NC(=O)[C@@H]2CCCN2C1=O [VMT-FAP-2-78, NOTA-PEG2-[C(oXdB)TPWEQWWC]-NH2] ({NOTA-PEG2}-CTPWEQWWC-NH2; linker 1-9 via oXylylene)	0.01
CC(=O)N[C@@H](CO)C(=O)N[C@H]1CSCc2cc(CSCCNC(=O)CCOCCOCCNC(=O)CN3CCN(CC(=O)O)CCN(CC(N)=O)CCN(CC(=O)O)CC3)cc(c2)CSC[C@@H](C(N)=O)NC(=O)[C@H](Cc2c[nH]c3ccccc23)NC(=O)[C@H](Cc2c[nH]c3ccccc23)NC(=O)[C@H](CCC(N)=O)NC(=O)[C@H](CCC(=O)O)NC(=O)[C@H](Cc2c[nH]c3ccccc23)NC(=O)[C@@H]2CCCN2C(=O)[C@H]([C@@H](C)O)NC1=O [VMT-FAP-2-55, Ac-S-[C(mXtB(CA-PEG2-PSC))TPWEQWWC]-NH2] (Ac-SCTPWEQWWC-NH2; linker 2-10 via X2)	1.12
CC(=O)N[C@@H](CO)C(=O)N[C@H]1CSCc2ccccc2CSC[C@@H](C(N)=O)NC(=O)[C@H](Cc2ccc(O)cc2)NC(=O)[C@H](Cc2c[nH]c3ccccc23)NC(=O)[C@H](CCC(N)=O)NC(=O)[C@H](CCC(=O)O)NC(=O)[C@H](Cc2ccccc2)NC(=O)[C@@H]2CCCN2C(=O)[C@H]([C@@H](C)O)NC1=O [VMT-FAP-2-28, Ac-S[C(oXdB)TPFEQWYC]-NH2] (Ac-SCTPFEQWYC-NH2; linker 2-10 via oXylylene)	2.29
CC(=O)N[C@@H](CC(=O)O)C(=O)N[C@H]1CSCc2ccccc2CSC[C@@H](C(N)=O)NC(=O)[C@H](Cc2c[nH]c3ccccc23)NC(=O)[C@H](Cc2c[nH]c3ccccc23)NC(=O)[C@H](CCC(N)=O)NC(=O)[C@H](CCC(=O)O)NC(=O)[C@H](Cc2ccccc2)NC(=O)[C@@H]2CCCN2C(=O)[C@H]([C@@H](C)O)NC1=O [VMT-FAP-1-14, Ac-D[C(oXdB)TPFEQWWC]-NH2] (Ac-DCTPFEQWWC-NH2; linker 2-10 via oXylylene)	0.36
CC(=O)N[C@H]1CSCc2ccccc2CSC[C@@H](C(N)=O)NC(=O)[C@H](Cc2c[nH]c3ccccc23)NC(=O)[C@H](Cc2c[nH]c3ccccc23)NC(=O)[C@H](CCC(N)=O)NC(=O)[C@H](CCC(=O)O)NC(=O)[C@H](Cc2ccccc2)NC(=O)[C@@H]2CCCN2C(=O)[C@H]([C@@H](C)O)NC1=O [VMT-FAP-2-40, Ac-[C(oXdB)TPFEQWWC]-NH2] (Ac-CTPFEQWWC-NH2; linker 1-9 via oXylylene)	1.27
C[C@@H](O)[C@@H]1NC(=O)[C@@H](NC(=O)[C@H](CO)NC(=O)[C@H](Cc2ccccc2)NC(=O)CCOCCOCCNC(=O)CN2CCN(CC(=O)O)CCN(CC(N)=O)CCN(CC(=O)O)CC2)CSCc2ccccc2CSC[C@@H](C(N)=O)NC(=O)[C@H](Cc2c[nH]c3ccccc23)NC(=O)[C@H](Cc2c[nH]c3ccccc23)NC(=O)[C@H](CCC(N)=O)NC(=O)[C@H](CCC(=O)O)NC(=O)[C@H](Cc2ccccc2)NC(=O)[C@@H]2CCCN2C1=O [VMT-FAP-2-39, PSC-PEG2-F-S-[C(oXdB)TPFEQWWC]-NH2] ({X1-PEG2}-FSCTPFEQWWC-NH2; linker 3-11 via oXylylene)	0.67
CC(=O)N[C@@H](CO)C(=O)N[C@H]1CSCc2ccccc2CSC[C@@H](C(N)=O)NC(=O)[C@H](Cc2c[nH]c3ccccc23)NC(=O)[C@H](Cc2c[nH]c3ccccc23)NC(=O)[C@H](CC(=O)O)NC(=O)[C@H](CCC(=O)O)NC(=O)[C@H](Cc2ccccc2)NC(=O)[C@@H]2CCCN2C(=O)[C@H]([C@@H](C)O)NC1=O [VMT-FAP-1-104, Ac-S[C(oXdB)TPFEDWWC]-NH2] (Ac-SCTPFEDWWC-NH2; linker 2-10 via oXylylene)	1.83
C[C@@H](O)[C@@H]1NC(=O)[C@@H](NC(=O)[C@H](CO)NC(=O)CCOCCOCCNC(=O)CN2CCN(CC(=O)O)CCN(CC(N)=O)CCN(CC(=O)O)CC2)CSCc2ccccc2CSC[C@@H](C(N)=O)NC(=O)[C@H](Cc2c[nH]c3ccccc23)NC(=O)[C@H](Cc2c[nH]c3ccccc23)NC(=O)[C@H](CCC(N)=O)NC(=O)[C@H](CCC(=O)O)NC(=O)[C@H](Cc2cccnc2)NC(=O)[C@@H]2CCCN2C1=O [VMT-FAP-2-62, PCS-PEG2-S-[C(oXdB)TP3-PalEQWWC]-NH2] ({X1-PEG2}-SCTP[3Pal]EQWWC-NH2; linker 2-10 via oXylylene)	0.61
C[C@@H](O)[C@@H]1NC(=O)[C@@H](NC(=O)CCOCCOCCNC(=O)CN2CCN(CC(=O)O)CCN(CC(N)=O)CCN(CC(=O)O)CC2)CSCc2ccccc2CSC[C@@H](C(N)=O)NC(=O)[C@H](Cc2c[nH]c3ccccc23)NC(=O)[C@H](Cc2c[nH]c3ccccc23)NC(=O)[C@H](CCC(N)=O)NC(=O)[C@H](CCC(=O)O)NC(=O)[C@H](Cc2ccccc2)NC(=O)[C@@H]2CCCN2C1=O [VMT-FAP-2-36, PSC-PEG2-[C(oXdB)TPFEQWWC]-NH2] ({X1-PEG2}-CTPFEQWWC-NH2; linker 1-9 via oXylylene)	0.76
CC(=O)N[C@@H](CCCNC(=N)N)C(=O)N[C@H]1CSCc2ccccc2CSC[C@@H](C(N)=O)NC(=O)[C@H](Cc2c[nH]c3ccccc23)NC(=O)[C@H](Cc2c[nH]c3ccccc23)NC(=O)[C@H](CCC(N)=O)NC(=O)[C@H](CCC(=O)O)NC(=O)[C@H](Cc2ccccc2)NC(=O)[C@@H]2CCCN2C(=O)[C@H]([C@@H](C)O)NC1=O [VMT-FAP-1-13, Ac-R[C(oXdB)TPFEQWWC]-NH2] (Ac-RCTPFEQWWC-NH2; linker 2-10 via oXylylene)	2.82
CC(=O)N[C@@H](CO)C(=O)N[C@H]1CSCc2ccccc2CSC[C@@H](C(N)=O)NC(=O)[C@H](Cc2c[nH]c3ccccc23)NC(=O)[C@H](Cc2c[nH]c3ccccc23)NC(=O)[C@H](Cc2c[nH]cn2)NC(=O)[C@H](CCC(=O)O)NC(=O)[C@H](Cc2ccccc2)NC(=O)[C@@H]2CCCN2C(=O)[C@H]([C@@H](C)O)NC1=O [VMT-FAP-1-101, Ac-S[C(oXdB)TPFEHWWC]-NH2] (Ac-SCTPFEHWWC-NH2; linker 2-10 via oXylylene)	11.2
C[C@@H](O)[C@@H]1NC(=O)[C@@H](NC(=O)CCOCCOCCOCCNC(=O)CN2CCN(CC(=O)O)CCN(CC(N)=O)CCN(CC(=O)O)CC2)CSCc2ccccc2CSC[C@@H](C(N)=O)NC(=O)[C@H](Cc2c[nH]c3ccccc23)NC(=O)[C@H](Cc2c[nH]c3ccccc23)NC(=O)[C@H](CCC(N)=O)NC(=O)[C@H](CCC(=O)O)NC(=O)[C@H](Cc2c[nH]c3ccccc23)NC(=O)[C@@H]2CCCN2C1=O [VMT-FAP-2-68, PSC-PEG3-[C(oXdB)TPWEQWWC]-NH2] ({X1-PEG3}-CTPWEQWWC-NH2; linker 1-9 via oXylylene)	0.64
CC(=O)N[C@@H](CC(N)=O)C(=O)N[C@H]1CSCc2ccccc2CSC[C@@H](C(N)=O)NC(=O)[C@H](Cc2c[nH]c3ccccc23)NC(=O)[C@H](Cc2c[nH]c3ccccc23)NC(=O)[C@H](CCC(N)=O)NC(=O)[C@H](CCC(=O)O)NC(=O)[C@H](Cc2c[nH]c3ccccc23)NC(=O)[C@@H]2CCCN2C(=O)[C@H]([C@@H](C)O)NC1=O [VMT-FAP-1-62, Ac-N[C(oXdB)TPWEQWWC]-NH2] (Ac-NCTPWEQWWC-NH2; linker 2-10 via oXylylene)	0.46
CC(=O)N[C@@H](CO)C(=O)N[C@H]1CSCc2ccccc2CSC[C@@H](C(N)=O)NC(=O)[C@H](Cc2c[nH]c3ccccc23)NC(=O)[C@H](Cc2ccc(O)cc2)NC(=O)[C@H](CCC(N)=O)NC(=O)[C@H](CCC(=O)O)NC(=O)[C@H](Cc2ccccc2)NC(=O)[C@@H]2CCCN2C(=O)[C@H]([C@@H](C)O)NC1=O [VMT-FAP-2-29, Ac-S[C(oXdB)TPFEQYWC]-NH2] (Ac-SCTPFEQYWC-NH2; linker 2-10 via oXylylene)	13.6
